Reference: US7973061B2, “Anaplastic lymphoma kinase modulators and methods of use” (Exelixis, Inc., priority 2004, dated 2011)

These molecules were tested against T1, ALK (baculovirus expressed human ALK kinase domain F1098-K1410) (Homo sapiens, UniProt Q9UM73) (assay: biochemical). Details: 1 μM ATP, 4 μM poly-AEKY, 12 nM ALK, 2 hours at ambient temperature; read-out: ALK IC50.
T1 construct: human ALK kinase domain F1098-K1410; made in house
In short: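 Inhibitors were tested at 10 concentrations, and IC50 was derived from a sigmoidal fit (Min, Max, Hill slope). Kinase activity was measured as percent ATP left after a 2 h reaction at room temperature, detected by luciferase-luciferin chemiluminescence. The ATP level was set close to KM for the ALK kinase domain F1098-K1410.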

T1 sequence (Q9UM73 1098-1410): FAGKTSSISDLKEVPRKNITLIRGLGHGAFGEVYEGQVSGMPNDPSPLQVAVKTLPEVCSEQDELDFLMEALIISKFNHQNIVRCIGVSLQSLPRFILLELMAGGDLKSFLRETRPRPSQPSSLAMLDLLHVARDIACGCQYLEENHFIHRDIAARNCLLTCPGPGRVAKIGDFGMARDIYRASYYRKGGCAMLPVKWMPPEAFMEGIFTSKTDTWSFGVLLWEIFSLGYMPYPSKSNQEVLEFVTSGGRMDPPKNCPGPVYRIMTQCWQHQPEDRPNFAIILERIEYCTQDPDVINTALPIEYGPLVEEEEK

Row | IC50 [µM] | SMILES
1 | 0.5 to 2 | O=C(COc1ccc(OC(F)(F)F)cc1)NCc1nc(C(=O)NCc2ccccc2)co1 [Entry 297, N-(phenylmethyl)-2-({[({4-[(trifluoromethyl)oxy]phenyl}oxy)acetyl]amino}methyl)-1,3-oxazole-4-carboxamide]
2 | 0.5 to 2 | O=C(NCc1nc(C(=O)NCCc2cccc(Cl)c2)cs1)OCc1ccc(OC(F)(F)F)cc1 [Entry 298, {4-[(trifluoromethyl)oxy]phenyl}methyl {[4-({[2-(3-chlorophenyl)ethyl]amino}carbonyl)-1,3-thiazol-2-yl]methyl}carbamate]
3 | > 2 | O=C(COc1ccc(OC(F)(F)F)cc1)NCc1cc(C(=O)NCCc2cccc(Cl)c2)no1 [Entry 299, N-[2-(3-chlorophenyl)ethyl]-5-({[({4-[(trifluoromethyl)oxy]phenyl}oxy)acetyl]amino}methyl)isoxazole-3-carboxamide]
4 | > 2 | NCc1nc(C(=O)NCCc2cccc(Cl)c2)cs1 [Entry 300, 2-(aminomethyl)-N-[2-(3-chlorophenyl)ethyl]-1,3-thiazole-4-carboxamide]
5 | > 2 | CO[C@@H]1[C@@H](C)/C=C(\C)[C@H](OC(N)=O)[C@@H](OC)/C=C\C=C(/C)C(=O)NC2=CC(=O)C=C(C2=O)[C@H](OC)[C@@H](C)C[C@H]1OC [Entry 301, (4E,6Z,8S,9S,10E,12S,13R,14R,16S,17R)-4,10,12,16-tetramethyl-8,13,14,17-tetrakis(methyloxy)-3,20,22-trioxo-2-azabicyclo[16.3.1]docosa-1(21),4,6,10,18-pentaen-9-yl carbamate, reference compound]
6 | > 2 | O=C(COc1ccc(OC(F)(F)F)cc1)NCc1nc(C(=O)O)cs1 [Entry 302, 2-({[({4-[(trifluoromethyl)oxy]phenyl}oxy)acetyl]amino}methyl)-1,3-thiazole-4-carboxylic acid]
7 | > 2 | COc1cccc(CNC(=O)c2csc(CN)n2)c1OC [Entry 303, 2-(aminomethyl)-N-{[2,3-bis(methyloxy)phenyl]methyl}-1,3-thiazole-4-carboxamide]
8 | > 2 | COc1ccccc1CNC(=O)c1csc(CN)n1 [Entry 304, 2-(aminomethyl)-N-{[2-(methyloxy)phenyl]methyl}-1,3-thiazole-4-carboxamide]
9 | > 2 | NCc1nc(C(=O)NCCc2ccccc2F)cs1 [Entry 305, 2-(aminomethyl)-N-[2-(2-fluorophenyl)ethyl]-1,3-thiazole-4-carboxamide]
10 | > 2 | O=C(COc1ccc(OC(F)(F)F)cc1)NCc1nc(C(=O)NCCc2cccc(Cl)c2)c[nH]1 [Entry 306, N-[2-(3-chlorophenyl)ethyl]-2-({[({4-[(trifluoromethyl)oxy]phenyl}oxy)acetyl]amino}methyl)-1H-imidazole-4-carboxamide]
11 | > 2 | NCc1nc(C(=O)NCCc2cccc(Cl)c2)co1 [Entry 307, 2-(aminomethyl)-N-[2-(3-chlorophenyl)ethyl]-1,3-oxazole-4-carboxamide]
12 | > 2 | O=C(COc1ccc(OC(F)(F)F)cc1)NCc1nc(C(=O)O)co1 [Entry 308, 2-({[({4-[(trifluoromethyl)oxy]phenyl}oxy)acetyl]amino}methyl)-1,3-oxazole-4-carboxylic acid]
13 | > 2 | O=C(NCCc1cccc(Cl)c1)c1csc(CNCc2ccc(OC(F)(F)F)cc2)n1 [Entry 309, N-[2-(3-chlorophenyl)ethyl]-2-{[({4-[(trifluoromethyl)oxy]phenyl}methyl)amino]methyl}-1,3-thiazole-4-carboxamide]
14 | > 2 | CCC1COC(C)(CCC(C)C)N1C(=O)c1csc(CNC(=O)COc2ccc(OC(F)(F)F)cc2)n1 (stereo not drawn) [Entry 310, N-[(4-{[4-ethyl-2-methyl-2-(3-methylbutyl)-1,3-oxazolidin-3-yl]carbonyl}-1,3-thiazol-2-yl)methyl]-2-({4-[(trifluoromethyl)oxy]phenyl}oxy)acetamide]
15 | > 2 | CCN(CC)C1CCN(C(=O)c2csc(CNC(=O)COc3ccc(OC(F)(F)F)cc3)n2)C1 (stereo not drawn) [Entry 311, N-[(4-{[3-(diethylamino)pyrrolidin-1-yl]carbonyl}-1,3-thiazol-2-yl)methyl]-2-({4-[(trifluoromethyl)oxy]phenyl}oxy)acetamide]
